Reference: the supplement of paper PMC11061612

Experiments:
Assay in all cases: combination Emax (second highest fraction inhibited in the dose matrix, 72 h); higher = more inhibition; extreme values may be limits of the assay
[1] = tested on: BxPC-3 (Pancreatic Carcinoma)
In short: (§1)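 Cell lines grown in DMEM/F12 or RPMI with 10% FBS were plated in 1536-well plates and held 24 hours at 37°C, 5% CO2 before 72 hours of exposure to two-drug dose matrices, with DMSO typically at 0.2%. CellTiter-Glo 2.0 luminescence gave viability, which was converted to inhibition. Vehicle wells were set to 0 and blank wells to 1. Combination Emax is the second-highest inhibition in the matrix, and Bliss excess is the observed combination effect minus the expected EA + EB − EA·EB, where EA and EB are the single-agent effects.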

[2] = tested on: TUR (Acute Myeloid Leukemia)
In short: as §1

[3] = tested on: P32-ISH (Burkitt's Lymphoma)
In short: as §1

[4] = tested on: DBTRG-05MG (Glioblastoma)
In short: as §1

[5] = tested on: OAW-28 (Ovarian Carcinoma)
In short: as §1

[6] = tested on: CPC-N (Small Cell Lung Carcinoma)
In short: as §1

NCI-H2373 (Mesothelioma) = tested on: NCI-H2373 (Mesothelioma)
In short: as §1

[7] = tested on: SCC-4 (Oral Cavity Carcinoma)
In short: as §1

SK-N-SH (Neuroblastoma) = tested on: SK-N-SH (Neuroblastoma)
In short: as §1

[8] = tested on: IA-LM (Non-Small Cell Lung Carcinoma)
In short: as §1

[9] = tested on: SUP-M2 (T-Cell Non-Hodgkin's Lymphoma)
In short: as §1

[10] = tested on: NCI-H596 (Other Solid Carcinomas)
In short: as §1

[11] = tested on: T84 (Colorectal Carcinoma)
In short: as §1

[12] = tested on: OVCAR-3 (Ovarian Carcinoma)
In short: as §1

[13] = tested on: MONO-MAC-6 (Acute Myeloid Leukemia)
In short: as §1

ES6 (Ewing's Sarcoma) = tested on: ES6 (Ewing's Sarcoma)
In short: as §1

[14] = tested on: LS-1034 (Colorectal Carcinoma)
In short: as §1

[15] = tested on: SNU-407 (Colorectal Carcinoma)
In short: as §1

T47D (Breast Carcinoma) = tested on: T47D (Breast Carcinoma)
In short: as §1

[16] = tested on: BHT-101 (Thyroid Gland Carcinoma)
In short: as §1

Compound | combination Emax [1] | combination Emax [2] | combination Emax [3] | combination Emax [4] | combination Emax [5] | combination Emax [6] | combination Emax (NCI-H2373 (Mesothelioma)) | combination Emax [7] | combination Emax (SK-N-SH (Neuroblastoma)) | combination Emax [8] | combination Emax [9] | combination Emax [10] | combination Emax [11] | combination Emax [12] | combination Emax [13] | combination Emax (ES6 (Ewing's Sarcoma)) | combination Emax [14] | combination Emax [15] | combination Emax (T47D (Breast Carcinoma)) | combination Emax [16]
CC(=O)Nc1cccc(-n2c(=O)n(C3CC3)c(=O)c3c(Nc4ccc(I)cc4F)n(C)c(=O)c(C)c32)c1 [Trametinib] + Cc1nc(-c2cn3c(n2)-c2ccc(-c4cnn(C(C)(C)C(N)=O)c4)cc2OCC3)n(C(C)C)n1 [Taselisib] (first compound max 1 µM, 7x7, partner max 10 µM) | 1 | 0.992 | 0.508 | 0.69 | 0.589 | 0.362 | 0.766 | 0.992 | 0.827 | 0.486 | 0.534 | 0.81 | 0.96 | 0.652 | 1 | 0.607 | 0.787 | 0.905 | 0.643 | 1
CC1(C)CCC(CN2CCN(c3ccc(C(=O)NS(=O)(=O)c4ccc(NCC5CCOCC5)c([N+](=O)[O-])c4)c(Oc4cnc5[nH]ccc5c4)c3)CC2)=C(c2ccc(Cl)cc2)C1 [Venetoclax] + C1CN(CCC1(C(=O)N[C@@H](CCO)C2=CC=C(C=C2)Cl)N)C3=NC=NC4=C3C=CN4 [Capivasertib] (first compound max 1 µM, 7x7, partner max 3 µM) | 0.297 | 0.599 | 0.306 | 0.209 | 0.134 | 0.84 | 0.422 | 0.23 | 0.394 | 0.189 | 0.248 | 0.334 | 0.168 | 0.161 | 0.704 | 0.47 | 0.207 | 0.388 | 0.373 | 0.214
CC1(C)CCC(CN2CCN(c3ccc(C(=O)NS(=O)(=O)c4ccc(NCC5CCOCC5)c([N+](=O)[O-])c4)c(Oc4cnc5[nH]ccc5c4)c3)CC2)=C(c2ccc(Cl)cc2)C1 [Venetoclax] + C=CCn1c(=O)c2cnc(Nc3ccc(N4CCN(C)CC4)cc3)nc2n1-c1cccc(C(C)(C)O)n1 [AZD1775] (first compound max 1 µM, partner max 1 µM) | 0.727 | 0.911 | 1 | 0.241 | 0.233 | 0.964 | 0.364 | 0.637 | 0.889 | 0.36 | 0.981 | 0.259 | 0.577 | 0.63 | 0.992 | 0.513 | 0.56 | 0.558 | 0.219 | 0.489
CC1(C)CCC(CN2CCN(c3ccc(C(=O)NS(=O)(=O)c4ccc(NCC5CCOCC5)c([N+](=O)[O-])c4)c(Oc4cnc5[nH]ccc5c4)c3)CC2)=C(c2ccc(Cl)cc2)C1 [Venetoclax] + CCN(CCO)CCCOc1ccc2c(Nc3cc(CC(=O)Nc4cccc(F)c4)[nH]n3)ncnc2c1 [AZD2811] (first compound max 1 µM, 7x7, partner max 1 µM) | 0.365 | 0.258 | 0.912 | 0.228 | 0.314 | 0.942 | 0.232 | 0.429 | 0.73 | 0.249 | 0.898 | 0.207 | 0.127 | 0.194 | 0.981 | 0.32 | 0.114 | 0.485 | 0.266 | 0.157
CC1(C)CCC(CN2CCN(c3ccc(C(=O)NS(=O)(=O)c4ccc(NCC5CCOCC5)c([N+](=O)[O-])c4)c(Oc4cnc5[nH]ccc5c4)c3)CC2)=C(c2ccc(Cl)cc2)C1 [Venetoclax] + CN(C)CCCOc1ccc(-c2ccc3ncc4c(c3c2)n(C2CCOCC2)c(=O)n4C)cn1 [AZD0156] (first compound max 1 µM, 7x7, partner max 1 µM) | 0.276 | 0.0455 | 0.0131 | 0.174 | 0.116 | 0.78 | 0.269 | 0.358 | 0.394 | 0.217 | 0.264 | 0.232 | 0.19 | 0.119 | 0.619 | 0.349 | 0.164 | 0.234 | 0.344 | 0.246
CC1(C)CCC(CN2CCN(c3ccc(C(=O)NS(=O)(=O)c4ccc(NCC5CCOCC5)c([N+](=O)[O-])c4)c(Oc4cnc5[nH]ccc5c4)c3)CC2)=C(c2ccc(Cl)cc2)C1 [Venetoclax] + COc1cc(Nc2ncc3c(n2)-c2ccc(Cl)cc2C(c2c(F)cccc2OC)=NC3)ccc1C(=O)O [Alisertib] (first compound max 1 µM, 7x7, partner max 10 µM) | 0.226 | 0.628 | 1 | 0.279 | 0.476 | 0.835 | 0.253 | 0.571 | 0.902 | 0.617 | 0.902 | 0.381 | 0.315 | 0.394 | 0.964 | 0.277 | 0.227 | 0.631 | 0.326 | 0.672
CC1(C)CCC(CN2CCN(c3ccc(C(=O)NS(=O)(=O)c4ccc(NCC5CCOCC5)c([N+](=O)[O-])c4)c(Oc4cnc5[nH]ccc5c4)c3)CC2)=C(c2ccc(Cl)cc2)C1 [Venetoclax] + C[C@@H]1COCCN1C2=NC(=NC(=C2)C3(CC3)[S@](=N)(=O)C)C4=C5C=CNC5=NC=C4 [AZD6738] (first compound max 1 µM, 7x7, partner max 10 µM) | 0.389 | 0.963 | 0.933 | 0.288 | 0.472 | 0.936 | 0.591 | 0.585 | 0.915 | 0.435 | 0.979 | 0.371 | 0.702 | 0.48 | 0.985 | 0.571 | 0.624 | 0.77 | 0.35 | 0.642
CC1(C)CCC(CN2CCN(c3ccc(C(=O)NS(=O)(=O)c4ccc(NCC5CCOCC5)c([N+](=O)[O-])c4)c(Oc4cnc5[nH]ccc5c4)c3)CC2)=C(c2ccc(Cl)cc2)C1 [Venetoclax] + C[C@@H](Nc1cc(F)cc(F)c1)c1cc(C(=O)N(C)C)cc2c(=O)cc(N3CCOCC3)oc12 [AZD8186] (first compound max 1 µM, 7x7, partner max 3 µM) | 0.245 | 0.209 | 0.341 | 0.12 | 0.331 | 0.835 | 0.216 | 0.614 | 0.403 | 0.0865 | 0.344 | 0.241 | 0.101 | 0.241 | 0.808 | 0.198 | 0.0835 | 0.142 | 0.272 | 0.272
CC1(C)CCC(CN2CCN(c3ccc(C(=O)NS(=O)(=O)c4ccc(NCC5CCOCC5)c([N+](=O)[O-])c4)c(Oc4cnc5[nH]ccc5c4)c3)CC2)=C(c2ccc(Cl)cc2)C1 [Venetoclax] + Cc1cc2ncnn2cc1Nc1ncc2c(n1)n(C1CCOCC1)c(=O)n2C [AZD7648] (first compound max 1 µM, 7x7, partner max 10 µM) | 0.283 | 0.102 | 0.0629 | 0.209 | 0.152 | 0.84 | 0.39 | 0.235 | 0.543 | 0.261 | 0.283 | 0.226 | 0.0827 | 0.196 | 0.436 | 0.37 | 0.0935 | 0.373 | 0.32 | 0.221
CC1(C)CCC(CN2CCN(c3ccc(C(=O)NS(=O)(=O)c4ccc(NCC5CCOCC5)c([N+](=O)[O-])c4)c(Oc4cnc5[nH]ccc5c4)c3)CC2)=C(c2ccc(Cl)cc2)C1 [Venetoclax] + Cn1cnc2c(F)c(Nc3ccc(Br)cc3Cl)c(C(=O)NOCCO)cc21 [Selumetinib] (first compound max 1 µM, 7x7, partner max 3 µM) | 0.323 | 0.179 | 0.239 | 0.285 | 0.284 | 0.734 | 0.295 | 0.164 | 0.553 | 0.175 | 0.366 | 0.222 | 0.16 | 0.126 | 0.357 | 0.162 | 0.537 | 0.504 | 0.0758 | 0.686
